Data: patent US20230131899A1, “INHIBITORS OF MICROBIALLY INDUCED AMYLOID” (Axial Therapeutics, Inc., priority 2020, published 2023)
Like-named read-outs stand apart in the source and are kept apart here.

What was measured:
E. coli CsgA = target: T1, E. coli CsgA (Escherichia coli, UniProt P28307); test: In vitro ThioflavinT assay of CsgA aggregation (CsgA ThT Assay); format: biochemical
T1 construct: made in house; host or cells: E. coli NEB 3016 slyD::kan, pET11d
Method in brief: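 Purified C-terminal His-tagged CsgA, monomerised by desalting and 30-kDa filtration, at 2-20 μM with 20-40 μM ThT in 50 mM potassium phosphate pH 7.3, 1% DMSO, compounds 3.125-200 uM; room temperature, fluorescence (ex 438/em 495 nm) read every 15 min. Background-subtracted signal expressed as percent inhibition versus vehicle at 6-6.5 or 8-9 h, or as percent control AUC.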

[1] = system: CsgA gene expression (csgBAC promoter-GFP reporter) in E. coli UTI89; test: In vitro live cell fluorescent reporter assay of CsgA transcription (Reporter Assay); format: cell-based
Method in brief: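 Chromosomal single-copy csgBAC promoter–GFP reporter in E. coli UTI89, started at OD600 0.003 in YESCA broth with compound (0.14–100 μM, 1% DMSO), 20 h at 27 °C. GFP (ex 485/em 525 nm) background-subtracted and normalized to vehicle; IC50 and X[50] from curve fits. OD600 tracked growth effects.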

[2] = read-out: CsgA ThT Assay (2 μM CsgA) % Control Bmax 25 μM, activity range, class symbol, CsgA 2 μM, white plates, compound 25 μM
[3] = read-out: CsgA ThT Assay (2 μM CsgA) % Control Bmax 25 μM, mean Bmax as percentage of DMSO control, CsgA 2 μM, white plates, compound 25 μM
[4] = read-out: CsgA ThT Assay (2 μM CsgA) % Control Bmax 100 μM, activity range, class symbol, CsgA 2 μM, white plates, compound 100 μM
[5] = read-out: CsgA ThT Assay (2 μM CsgA) % Control Bmax 100 μM, mean Bmax as percentage of DMSO control, CsgA 2 μM, white plates, compound 100 μM
[6] = Escherichia coli, read-out: Reporter Assay Abs IC50 (μM), median Abs IC50 in the CsgA reporter assay, N/A = maximum expression reduction is <50% of control
[7] = Escherichia coli, read-out: Reporter Assay Abs IC50, activity range, class symbol
[8] = read-out: CsgA ThT Assay (10 μM CsgA) % Control AUC at 1005 minutes, 25 μM (activity range), CsgA 10 μM, black plates, compound 25 μM, 1005 minutes, class symbol
[9] = read-out: CsgA ThT Assay (10 μM CsgA) % Control AUC at 1005 minutes, 25 μM, mean AUC as % of DMSO control, CsgA 10 μM, black plates, compound 25 μM, 1005 minutes
[10] = read-out: CsgA ThT Assay (10 μM CsgA) % Control AUC at 1005 minutes, 100 μM (activity range), CsgA 10 μM, black plates, compound 100 μM, 1005 minutes, class symbol
[11] = read-out: CsgA ThT Assay (10 μM CsgA) % Control AUC at 1005 minutes, 100 μM, mean AUC as % of DMSO control, CsgA 10 μM, black plates, compound 100 μM, 1005 minutes
[12] = Escherichia coli, read-out: Reporter Assay Abs IC50 (activity range), median Abs IC50 in the CsgA reporter assay, class symbol

T1 sequence (P28307 23-151): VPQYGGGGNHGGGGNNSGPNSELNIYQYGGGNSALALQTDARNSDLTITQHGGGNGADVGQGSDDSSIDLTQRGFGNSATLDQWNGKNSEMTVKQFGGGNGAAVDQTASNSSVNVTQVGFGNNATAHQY

SMILES	remaining activity at 25 µM (E. coli CsgA; [2]) [%]	remaining activity at 25 µM (E. coli CsgA; [3]) [%]	remaining activity at 100 µM (E. coli CsgA; [4]) [%]	remaining activity at 100 µM (E. coli CsgA; [5]) [%]	IC50 [1, 6] [µM]	IC50 [1, 7] [µM]	remaining activity at 25 µM (E. coli CsgA; [8]) [%]	remaining activity at 25 µM (E. coli CsgA; [9]) [%]	remaining activity at 100 µM (E. coli CsgA; [10]) [%]	remaining activity at 100 µM (E. coli CsgA; [11]) [%]	IC50 [1, 12] [µM]	CsgA ThT Assay (10 μM CsgA) % Control AUC at 1005 minutes, 25 μM (activity range) (E. coli CsgA; CsgA 10 μM, black plates, compound 25 μM, 1005 minutes, class symbol)	CsgA ThT Assay (10 μM CsgA) % Control AUC at 1005 minutes, 100 μM (activity range) (E. coli CsgA; CsgA 10 μM, black plates, compound 100 μM, 1005 minutes, class symbol)	CsgA ThT Assay (10 μM CsgA) % Control AUC at 1005 minutes, 25 μM (E. coli CsgA; mean AUC as % of DMSO control, CsgA 10 μM, black plates, compound 25 μM, 1005 minutes) [%]	CsgA ThT Assay (10 μM CsgA) % Control AUC at 1005 minutes, 100 μM (E. coli CsgA; mean AUC as % of DMSO control, CsgA 10 μM, black plates, compound 100 μM, 1005 minutes) [%]	IC50 ([1]; read-out: Reporter Assay Abs IC50 (activity range), median Abs IC50 in the CsgA reporter assay, class symbol) [µM]	IC50 ([1]; read-out: Reporter Assay Abs IC50, median Abs IC50 in the CsgA reporter assay, N/A = maximum expression reduction is <50% of control) [µM]
O=C(O)C1CN(Cc2ccccc2)c2c(-c3cccc(C(F)(F)F)c3)c(Cc3cccc4ccncc34)c(Cl)c(=O)n21 (stereo not drawn) [Compound 205, 1-benzyl-6-chloro-7-(isoquinolin-8-ylmethyl)-5-oxo-8-(3-(trifluoromethyl)phenyl)-1,2,3,5-tetrahydroimidazo[1,2-a]pyridine-3-carboxylic acid]	> 60	69	31 to 60	44	22.4	> 10	–	–	–	–	–	–	–	–	–	–	–
CN1CC(C(=O)O)n2c(c(-c3cccc(C(F)(F)F)c3)c(Cc3cccc4ccccc34)c(N3CCOCC3)c2=O)S1(=O)=O (stereo not drawn) [Compound 079, 2-methyl-7-morpholino-8-(naphthalen-1-ylmethyl)-6-oxo-9-(3-(trifluoromethyl)phenyl)-3,4-dihydro-2H,6H-pyrido[1,2-e][1,2,5]thiadiazine-4-carboxylic acid 1,1-dioxide]	–	–	–	–	10.7	–	31 to 60	40	11 to 31	14	> 10	–	–	–	–	–	–
CCCCN1CC(C(=O)O)n2c(c(-c3cccc(C(F)(F)F)c3)c(Cc3cccc4ccccc34)cc2=O)S1(=O)=O (single isomer, unassigned) [Compound 021b, 2-butyl-8-(naphthalen-1-ylmethyl)-6-oxo-9-(3-(trifluoromethyl)phenyl)-3,4-dihydro-2H,6H-pyrido[1,2-e][1,2,5]thiadiazine-4-carboxylic acid 1,1-dioxide]	–	–	–	–	–	–	–	–	–	–	–	(++) (% control AUC of 31 to 60%)	(+) (% control AUC of greater than 60%)	36	99	1.3 to 4.5	2.1
O=C(O)C1CN(CCCCCO)S(=O)(=O)c2c(-c3cccc(C(F)(F)F)c3)c(Cc3cccc4ccccc34)cc(=O)n21 (stereo not drawn) [Compound 086, 2-(5-hydroxypentyl)-8-(naphthalen-1-ylmethyl)-6-oxo-9-(3-(trifluoromethyl)phenyl)-3,4-dihydro-2H,6H-pyrido[1,2-e][1,2,5]thiadiazine-4-carboxylic acid 1,1-dioxide]	–	–	–	–	9.6	–	31 to 60	33	11 to 31	20	4.6 to 10	–	–	–	–	–	–
CCCN1CC(C(=O)O)n2c(c(-c3cccc(C(F)(F)F)c3)c(Cc3cccc4ccccc34)c(Br)c2=O)S1(=O)=O (stereo not drawn) [Compound 107, 7-bromo-8-(naphthalen-1-ylmethyl)-6-oxo-2-propyl-9-(3-(trifluoromethyl)phenyl)-3,4-dihydro-2H,6H-pyrido[1,2-e][1,2,5]thiadiazine-4-carboxylic acid 1,1-dioxide]	–	–	–	–	3.7	–	31 to 60	36	31 to 60	38	1.3 to 4.5	–	–	–	–	–	–
CCCCN1CC(C(=O)O)n2c(c(-c3cccc(C(F)(F)F)c3)c(Cc3cccc4ccccc34)c(N)c2=O)S1(=O)=O (stereo not drawn) [Compound 093, 7-amino-2-butyl-8-(naphthalen-1-ylmethyl)-6-oxo-9-(3-(trifluoromethyl)phenyl)-3,4-dihydro-2H,6H-pyrido[1,2-e][1,2,5]thiadiazine-4-carboxylic acid 1,1-dioxide]	–	–	–	–	3.6	–	31 to 60	49	31 to 60	37	1.3 to 4.5	–	–	–	–	–	–
N#Cc1c(Cc2cccc3ccccc23)c(-c2cccc(C(F)(F)F)c2)c2n(c1=O)C(C(=O)O)CN2Cc1ccccc1 (stereo not drawn) [Compound 185, 1-benzyl-6-cyano-7-(naphthalen-1-ylmethyl)-5-oxo-8-(3-(trifluoromethyl)phenyl)-1,2,3,5-tetrahydroimidazo[1,2-a]pyridine-3-carboxylic acid]	> 60	69	> 60	91	1.8	1.3 to 4.5	–	–	–	–	–	–	–	–	–	–	–
NC(=O)c1c(Cc2cccc3ccccc23)c(-c2cccc(C(F)(F)F)c2)c2n(c1=O)C(C(=O)O)CN2Cc1ccccc1 (stereo not drawn) [Compound 203, 1-benzyl-6-carbamoyl-7-(naphthalen-1-ylmethyl)-5-oxo-8-(3-(trifluoromethyl)phenyl)-1,2,3,5-tetrahydroimidazo[1,2-a]pyridine-3-carboxylic acid]	> 60	62	> 60	64	1.1	< 1.3	–	–	–	–	–	–	–	–	–	–	–
O=C(O)C1CN(Cc2ccccc2)c2c(-c3cccc(C(F)(F)F)c3)c(Cc3ccnc4ccccc34)c(Cl)c(=O)n21 (stereo not drawn) [Compound 206, 1-benzyl-6-chloro-5-oxo-7-(quinolin-4-ylmethyl)-8-(3-(trifluoromethyl)phenyl)-1,2,3,5-tetrahydroimidazo[1,2-a]pyridine-3-carboxylic acid]	> 60	64	31 to 60	54	13.2	> 10	–	–	–	–	–	–	–	–	–	–	–
